Measured values as given in ChEMBL document CHEMBL4825686, “HTS-based discovery and optimization of novel positive allosteric modulators of the α7 nicotinic acetylcholine receptor” (Eur J Med Chem, 2021).
pEC50: −log10 of the molar value. Converted amounts (≈) assume the structure as drawn. Values belong to the compound of their own block, whether it stands above or below them.

Tests used:
[1] = biological target: T1, Neuronal acetylcholine receptor subunit alpha-7 (Homo sapiens, UniProt P36544); experiment: Positive allosteric modulator activity at human alpha7 nAChR expressed in Flp-In-HEK293 cells co-expressing RIC-3 assessed as potentiation of PNU282987-induced calcium influx measured after 10 mins by FLIPR assay; assay type: cell-based, Flp-In-293; conditions: for EC50: flp-in-293; for pEC50: read-out: EC50
[2] = Mutagenicity in Salmonella typhimurium TA1535 in presence of rat liver S9 fraction by AMES test; assay type: toxicity, subcellular; conditions: salmonella enterica subsp. enterica serovar typhimurium
[3] = Mutagenicity in Salmonella typhimurium TA100 in absence of rat liver S9 fraction by AMES test; assay type: toxicity; conditions: salmonella enterica subsp. enterica serovar typhimurium
[4] = Mutagenicity in Salmonella typhimurium TA1535 in absence of rat liver S9 fraction by AMES test; assay type: toxicity; conditions: salmonella enterica subsp. enterica serovar typhimurium
[5] = Mutagenicity in Salmonella typhimurium TA1537 in presence of rat liver S9 fraction by AMES test; assay type: toxicity, subcellular; conditions: salmonella enterica subsp. enterica serovar typhimurium
[6] = Mutagenicity in Salmonella typhimurium TA98 in presence of rat liver S9 fraction by AMES test; assay type: toxicity, subcellular; conditions: salmonella enterica subsp. enterica serovar typhimurium
[7] = Kinetic solubility of compound; assay type: physicochemical; conditions: read-out: Kinetic_solubility
[8] = Mutagenicity in Escherichia coli WP2 uvrA in presence of rat liver S9 fraction by AMES test; assay type: toxicity, subcellular
[9] = Mutagenicity in Salmonella typhimurium TA100 in presence of rat liver S9 fraction by AMES test; assay type: toxicity, subcellular; conditions: salmonella enterica subsp. enterica serovar typhimurium
[10] = Mutagenicity in Salmonella typhimurium TA1537 in absence of rat liver S9 fraction by AMES test; assay type: toxicity; conditions: salmonella enterica subsp. enterica serovar typhimurium
[11] = Mutagenicity in Escherichia coli WP2 uvrA in absence of rat liver S9 fraction by AMES test; assay type: toxicity
[12] = Mutagenicity in Salmonella typhimurium TA98 in absence of rat liver S9 fraction by AMES test; assay type: toxicity; conditions: salmonella enterica subsp. enterica serovar typhimurium
[13] = Metabolic stability in NMRI mouse liver microsomes assessed as intrinsic clearance at 1 uM measured per mg protein upto 40 mins; assay type: ADME, Microsome; conditions: read-out: CLH
[14] = Metabolic stability in human liver microsomes assessed as intrinsic clearance at 1 uM measured per mg protein upto 40 mins; assay type: ADME, Microsome; conditions: read-out: CLH
[15] = Metabolic stability in Wistar rat liver microsomes assessed as intrinsic clearance at 1 uM measured per mg protein upto 40 mins; assay type: ADME, Microsome; conditions: read-out: CLH
[16] = biological target: T1, Neuronal acetylcholine receptor subunit alpha-7; experiment: Positive allosteric modulator activity at human alpha7 nAChR expressed in Flp-In-HEK293 cells co-expressing RIC-3 assessed as potentiation of PNU282987-induced calcium influx at 10 uM measured after 10 mins by FLIPR assay; assay type: cell-based
[17] = Flp-In-293, filed as positive allosteric modulator

T1 sequence (P36544 whole entry): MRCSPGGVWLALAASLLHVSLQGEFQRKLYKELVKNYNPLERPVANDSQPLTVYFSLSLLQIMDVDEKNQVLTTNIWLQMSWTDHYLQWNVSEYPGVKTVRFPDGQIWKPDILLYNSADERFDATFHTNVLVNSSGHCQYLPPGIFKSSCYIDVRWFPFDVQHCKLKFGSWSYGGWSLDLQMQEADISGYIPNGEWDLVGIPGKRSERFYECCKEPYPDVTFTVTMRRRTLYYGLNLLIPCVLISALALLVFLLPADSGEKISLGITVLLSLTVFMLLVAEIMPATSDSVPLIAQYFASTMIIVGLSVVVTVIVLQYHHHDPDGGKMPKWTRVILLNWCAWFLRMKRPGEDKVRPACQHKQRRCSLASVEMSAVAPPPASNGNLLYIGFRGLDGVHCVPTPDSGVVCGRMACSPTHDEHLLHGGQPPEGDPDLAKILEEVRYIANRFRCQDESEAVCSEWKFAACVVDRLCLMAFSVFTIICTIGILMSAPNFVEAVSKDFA

- EC50 [1]: Not Active
SMILES: Cc1ccc(CN2CCN(C(=O)C(=O)NCc3ccc4c(ccn4C)c3)CC2)cc1

- pEC50 [1]: 6.05
- solubility kinetic [7]: 47.1 µM (≈ 19.2 µg/mL)
SMILES: Cc1ccc(CN2CCN(C(=O)C(=O)Nc3cc4ccn(C)c4cc3F)CC2)cc1
- Activity [2]: Toxic
- Activity [3]: Toxic
- Activity [4]: Toxic
- Activity [5]: Toxic
- Activity [6]: Toxic
- Activity [8]: Toxic
- Activity [9]: Toxic
- Activity [10]: Toxic
- Activity [11]: Toxic
- Activity [12]: Toxic

- pEC50 [1]: 6.18
SMILES: Cc1ccc(CN2CCN(C(=O)c3nnc(-c4cccc5c4ccn5C)o3)CC2)cc1

- pEC50 [1]: 6.66
SMILES: Cn1ccc2cc(CNC(=O)N3CC(COc4ccc(F)cc4)C3)ccc21

- pEC50 [1]: 6.96
- microsomal CLint at 1 µM [13]: 151 µL/min/mg
- microsomal CLint at 1 µM [14]: 17 µL/min/mg
- solubility kinetic [7]: 42.7 µM (≈ 16.8 µg/mL)
- microsomal CLint at 1 µM [15]: 130 µL/min/mg
SMILES: Cc1ccc(CN2CCN(C(=O)C(=O)Nc3cc(F)c4[nH]ccc4c3)CC2)cc1
- Activity [2]: Toxic
- Activity [3]: Toxic
- Activity [4]: Toxic
- Activity [5]: Toxic
- Activity [6]: Toxic
- Activity [8]: Toxic
- Activity [9]: Toxic
- Activity [10]: Toxic
- Activity [11]: Toxic
- Activity [12]: Toxic

- pEC50 [1]: 6.77
SMILES: Cc1ccc(OC2CCN(C(=O)NCc3ccc4c(ccn4C)c3)C2)cc1 (configuration not stated)

- EC50 [1]: Not Active
SMILES: Cc1ccc(CC2CCN(C(=O)C(=O)Nc3ccc4[nH]c(C)cc4c3)CC2)cc1

- pEC50 [1]: 7.40
SMILES: Cc1ccc(Oc2ccc(C(=O)NCc3ccc4c(ccn4C)c3)cc2)cc1

- pEC50 [1]: 5.60
SMILES: Cn1nc(-c2ccc3c(ccn3C)c2)cc1C(=O)N1CCN(Cc2ccc(Cl)cc2)CC1

- Activity [16, 17]: 52%
- solubility kinetic [7]: 3 µM (≈ 1.18 µg/mL)
SMILES: Cn1ccc2cc(NC(=O)C(=O)c3cnn(Cc4ccc(Cl)cc4)c3)ccc21

- pEC50 [1]: 6.38
- solubility kinetic [7]: 6.8 µM (≈ 2.89 µg/mL)
SMILES: Cc1ccc(CN2CCN(C(=O)C(=O)Nc3ccc4c(c3)c(Cl)cn4C)CC2)cc1
- Activity [2]: Toxic
- Activity [3]: Toxic
- Activity [4]: Toxic
- Activity [5]: Toxic
- Activity [6]: Toxic
- Activity [8]: Toxic
- Activity [9]: Toxic
- Activity [10]: Toxic
- Activity [11]: Toxic
- Activity [12]: Toxic

- pEC50 [1]: 6.68
- microsomal CLint at 1 µM [13]: 39 µL/min/mg
- microsomal CLint at 1 µM [14]: 12 µL/min/mg
- microsomal CLint at 1 µM [15]: 41 µL/min/mg
SMILES: Cc1ccc(CN2CCN(C(=O)C(=O)Nc3cnc4c(c3)c(F)cn4C)CC2)cc1

- EC50 [1]: Not Active
SMILES: Cc1ccc(CN2CCCC(C(=O)NCc3ccc4c(ccn4C)c3)C2)cc1 (configuration not stated)

- Activity [16, 17]: 47%
SMILES: Cc1ccc(OC2CN(C(=O)C(=O)Nc3ccc4c(ccn4C)c3)C2)cc1

- pEC50 [1]: 6.17
SMILES: Cc1ccc(O[C@H]2CC[C@H](C(=O)C(=O)Nc3ccc4c(ccn4C)c3)CC2)cn1

- Activity ([16]; Flp-In-293): 12%
SMILES: Cc1ccc(CN2CCC(C(=O)NCc3ccc4c(ccn4C)c3)CC2)cc1

- Activity ([16]; Flp-In-293): 37%
SMILES: Cc1ccc(CC2CCN(C(=O)NC(=O)c3ccc4c(ccn4C)c3)CC2)cc1

- EC50 [1]: Not Active
- microsomal CLint at 1 µM [13]: 40 µL/min/mg
- microsomal CLint at 1 µM [14]: 12 µL/min/mg
- solubility kinetic [7]: 8.1 µM (≈ 3.27 µg/mL)
- microsomal CLint at 1 µM [15]: 61 µL/min/mg
SMILES: Cc1ccc(OC2CC3CCC(C2)N3C(=O)C(=O)Nc2ccc3[nH]ccc3c2)cc1 (configuration not stated)

- pEC50 [1]: 7.07
- microsomal CLint at 1 µM [13]: 214 µL/min/mg
- microsomal CLint at 1 µM [14]: 21 µL/min/mg
- solubility kinetic [7]: 16.5 µM (≈ 6.74 µg/mL)
- microsomal CLint at 1 µM [15]: 192 µL/min/mg
SMILES: Cc1ccc(CN2CCN(C(=O)C(=O)Nc3ccc4c(c3)c(F)cn4C)CC2)cc1
- Activity [2]: Toxic
- Activity [3]: Toxic
- Activity [4]: Toxic
- Activity [5]: Toxic
- Activity [6]: Toxic
- Activity [8]: Toxic
- Activity [9]: Toxic
- Activity [10]: Toxic
- Activity [11]: Toxic
- Activity [12]: Toxic

- pEC50 [1]: 7.22
SMILES: COc1ccc(OCC2CN(C(=O)NCc3ccc4c(ccn4C)c3)C2)cc1

- microsomal CLint at 1 µM [13]: 151 µL/min/mg
- Activity ([16]; Flp-In-293): 10%
- microsomal CLint at 1 µM [14]: 13 µL/min/mg
- solubility kinetic [7]: 23 µM (≈ 9.3 µg/mL)
- microsomal CLint at 1 µM [15]: 56 µL/min/mg
SMILES: Cc1ccc(CN2CCN(C(=O)C(=O)Nc3ccc4[nH]c(C)c(C)c4c3)CC2)cc1
- Activity [2]: Toxic
- Activity [3]: Toxic
- Activity [4]: Toxic
- Activity [5]: Toxic
- Activity [6]: Toxic
- Activity [8]: Toxic
- Activity [9]: Toxic
- Activity [10]: Toxic
- Activity [11]: Toxic
- Activity [12]: Toxic

- pEC50 [1]: 6.21
SMILES: Cc1ccc(OC2CN(C(=O)NCc3ccc4c(ccn4C)c3)C2)cc1

- pEC50 [1]: 7.10
SMILES: Cn1ccc2cc(CNC(=O)N3CC(COc4ccc(C(F)(F)F)cc4)C3)ccc21

- pEC50 [1]: 6.55
SMILES: Cc1ccc(OCC2CCN(C(=O)NCc3ccc4c(ccn4C)c3)C2)cc1 (configuration not stated)

- Activity ([16]; Flp-In-293): 25%
SMILES: Cc1ccc(OC2CCN(C(=O)C(=O)Nc3ccc4c(ccn4C)c3)C2)cc1 (configuration not stated)
